The test system of this assay is bovine satellite cells (BSCs). Briefly: Short-term growth analysis (3 and 4 days, dsDNA quantitation, brightfield imaging). Particulars: for BSC proliferation compared to B8 media alone: supplement in B8, range of concentrations, growth over four days; for FGF-2 concentration to which medium could be lowered without significantly affecting growth: vs 40 ng/mL control. The assay is classed as cell-based. On the procedure:
Homemade B8 medium was prepared using store-bought components and a previously described formulation and method of preparation. See, Kuo, H. H. et al. Negligible-Cost and Weekend-Free Chemically Defined Human iPSC Culture. Stem Cell Reports 14, 256-270. Table 1 includes the formulation. Additionally, HiDef-B8 medium aliquots were generously provided by Defined Bioscience (Defined Bioscience #LSS-201, San Diego, CA, USA) and added DMEM/F12 with 1% antibiotic/antimycotic. Short term BSC growth (3 and 4 days) was analyzed for mixtures of serum-containing and serum-free media, as well as for pure B8 media with reduced growth factor concentrations and/or with the addition of various media supplements (Table 2). Briefly, BSCs were thawed (passage number <2) and plated in BSC-GM on 96-well tissue-culture plastic plates for each timepoint at a density of 2,500 cells/cm^2 with 0.25 ug/cm^2 iMatrix recombinant laminin-511. After 24 hours, BSC-GM was removed, cells were washed 1× with DPBS, and new media (e.g., B8+/−supplementation) was added. A list of supplements and concentrations can be found in Table 2. Media was changed on day 3, and on days 3 and 4 cells were imaged, media was aspirated from appropriate plates, and plates were frozen at −80° C. Once all timepoints were frozen, cell number was analyzed using a FluoReporter dsDNA quantitation kit (ThermoFisher #F2962) according to the recommended protocol and with fluorescence readings performed on a Synergy H1 microplate reader (BioTek Instruments, Winooski, VT, USA) using excitation and emission filters centered at 360 and 490 nm, respectively. Cell number at 3 and 4 days was analyzed relative to pure B8 or HiDef media.

“Also recorded” adds a separate entry of the source.

For `COc1cc(/C=C/C(=O)CC(=O)/C=C/c2ccc(O)c(OC)c2)ccc1O` [curcumin, reference compound], the “BSC proliferation compared to B8 media alone” value is “significantly improved”.

For `NCCO` [ethanolamine, reference compound], the “BSC proliferation compared to B8 media alone” value was “inconsequential”. Still for that read-out and setting: the entry for `CCCCC/C=C\C/C=C\CCCCCCCC(=O)O` [linoleic acid, reference compound] is “significantly improved”.

In the case of `CCCCCCCC/C=C\CCCCCCCC(=O)O` [oleic acid, reference compound], the “BSC proliferation compared to B8 media alone” value is recorded as “significantly improved”. For the same molecule, the “growth vs B8 control on day 4” value (tested alone in B8, day 4) is “no significant difference”. As to “FGF-2: fibroblast growth factor, component of B8 and Beefy-9, baseline 40 ng/mL”, the “effect of complete removal of FGF-2 on cell growth and morphology” value (0 ng/mL FGF-2 in the media) is given as “significantly affects cell morphology; also recorded: significantly affected”. For the same molecule, the “effect of FGF-2 reduction on cell morphology” value (Beefy-9 with 5 ng/mL FGF-2, three days) is “did not affect morphology”. Further, the “FGF-2 concentration to which medium could be lowered without significantly affecting growth” value by setting is: (in B8, four days) 5 ng/mL; (in Beefy-9, four days) 1.25 ng/mL. “IL-6: interleukin-6, media supplement (BioRad PBP021)”: the “BSC proliferation compared to B8 media alone” value is “significantly improved”. Regarding “hepatocyte growth factor: hepatocyte growth factor, media supplement tested in B8”, the “BSC proliferation compared to B8 media alone” value is on record as “inconsequential”.

For the origin of these results see patent US20240034987A1, “SUPPLEMENTED SERUM-FREE MEDIA FOR CULTURED MEAT PRODUCTION” (Trustees of Tufts College, priority 2020, published 2024).
